From US20250268845A1, “BONE REGENERATION COMPOSITION INCLUDING HORDENINE AND USE THEREOF” ([…]., priority 2023, published 2025)

Experiments:
mesenchymal stem cells = test: Differentiation of mesenchymal stem cells into chondrocytes, Alcian blue staining; format: cell-based; conditions: 5 or 10 µM hordenine, compared to the group treated only with a differentiation medium, FIG. 1
Protocol: Specifically, mesenchymal stem cells were seeded at 2.5×10^4 cells/48 well and divided into a group treated only with the basic medium α-MEM, a group treated only with a differentiation medium (Chondrogenic media (CM)), and groups treated with 5 or 10 µM hordenine. After a few days, the degree of chondrocyte differentiation was evaluated by Alcian blue staining.

osteoclasts [1] = test: Bone resorption assay on dentin disc through hematoxylin staining; format: cell-based, mice; conditions: 10, 20, or 40 μM for 3 days, pre-osteoclasts from BMMs, compared to non-treatment; FIG. 5A
Protocol: (§1) Specifically, bone marrow-derived macrophages (BMMs) were isolated from 3- to 4-week-old mice and cultured. On day 5, the BMMs were treated with receptor activator of nuclear factors KB ligand (RANKL) and macrophage-colony stimulating factor (M-CSF) for 3 days to be differentiated into pre-osteoclasts. Thereafter, to confirm the degree of osteoclast activation, the pre-osteoclasts were treated with 10, 20, or 40 μM of hordenine for 3 days, and a bone resorption assay through hematoxylin staining and a dentin disc actin ring assay through immunofluorescence staining were performed to confirm the degree of osteoclast activation. Bone resorption assay is a method of seeding osteoclasts on a dentin disc, which is an experimental bone tissue simulating the dentin component of bone, and quantifying the extent to which osteoclasts eat away at the bone. When holes formed by bone erosion are quantified, the pit area is measured, and a lower measurement indicates a lower degree of bone erosion. The more extensively the disc is eroded, the more intensely the disc stains with hematoxylin, while less eroded areas stain more lightly. […]

osteoclasts [2] = test: Dentin disc actin ring assay through immunofluorescence staining; format: cell-based, mice; conditions: 10, 20, or 40 μM for 3 days, pre-osteoclasts from BMMs, compared to non-treatment; FIG. 5B
Protocol: as §1

[3] = system: osteoarthritis induced by DMM; test: Cartilage regeneration in DMM-induced osteoarthritis, Safranin O and fast green staining; format: in vivo, mice; conditions: 2 mg/kg intra-articularly for 4 weeks from week 5 after DMM, examined at week 9
Protocol: Specifically, osteoarthritis was induced by incising the ligament that stabilizes the medial meniscus in the joint tissue of 9-week-old mice. Starting from week 5 after destabilization of the medial meniscus (DMM), 2 mg/kg of hordenine was injected intra-articularly for 4 weeks, and at week 9, the mice were sacrificed and the joint tissues were examined by staining with Safranin O and fast green. The experimental process is illustrated in FIG. 2, and the experimental results are illustrated in FIGS. 3A and 3B.

osteoclasts [4] = test: LPS-induced bone destruction in mouse skull, TRAP staining; format: in vivo, mice; conditions: 1 mg/kg intra-calvarially for 5 days after LPS 12.5 mg/kg; skulls harvested 6 days after the first LPS injection day; compared to LPS only; FIG. 6
Protocol: Specifically, 12.5 mg/kg of lipopolysaccharide (LPS) was injected intra-calvarially into the skull of 5-week-old male mice twice in total: once on the first injection day and once 2 days after the first injection day, thereby inducing bone destruction. Thereafter, 1 mg/kg of hordenine was injected intra-calvarially for 5 days, starting 1 day after the first LPS injection day. 6 days after the first LPS injection day, the mice were sacrificed and the skulls were harvested from the mice. Then, the degree of osteoclast differentiation was evaluated by tartrate-resistant acid phosphatase (TRAP) staining. The results thereof are illustrated in FIG. 6.

## CN(C)CCc1ccc(O)cc1 [hordenine, 4-(2-dimethylaminoethyl) phenol]
Mesenchymal stem cells
  degree of differentiation from mesenchymal stem cells into chondrocytes: much higher
Osteoclasts [1]
  hematoxylin staining (bone erosion of dentin disc): became lighter in a concentration-dependent manner
  pit area: reduced
Osteoclasts [2]
  number of osteoclasts forming actin rings: decreased in a concentration-dependent manner
[3]
  cartilage degradation (OARSI grade): decrease
  osteophytes caused by osteoarthritis induction: reduced
  synovitis: reduced
  thickness of subchondral bone plate (SBP): reduced
[3]; FIGS. 3A and 3B
  cartilage (red portion) that had collapsed due to DMM: restored
Osteoclasts [4]
  TRAP staining of skulls (degree of osteoclast differentiation): lightly stained with TRAP
